Test results from article PMC10178848, “Modulating fast skeletal muscle contraction protects skeletal muscle in animal models of Duchenne muscular dystrophy” (The Journal of Clinical Investigation, 2023).

What was measured:
[1] = system: mouse extensor digitorum longus (EDL) muscle; experiment: Ex vivo isometric force, mouse EDL; details: WT mouse EDL, 10 μM
Experimental: Isometric force was measured ex vivo in mouse EDL and soleus muscle. EDL muscle eccentric injury was based on published protocols ([30]), with degree of lengthening and stimulation modified to yield a uniform drop in mdx isometric and peak force over 10 contractions. After isolation, muscle was mounted via 5-0 suture to a combination servomotor/force transducer (300C-LR, Aurora) between 2 electrodes connected to a stimulator (701C, Aurora) in Ringers solution at 27°C with continuously infused CO2/O2 gas mixture. Experiments were recorded with custom MATLAB software via a National Instruments PCIe-6321 board and 2090A BNC connector. Muscles were preincubated for 60 minutes with DMSO (final 0.1%)/compound before 10 eccentric contractions, 1 minute apart, with 100 milliseconds of isometric stimulation at 100 Hz and active lengthening of 0.1 L0 at a rate of 2 L0/s. After lengthening, muscles were held at 1.1 L0 with stimulation for 100 milliseconds (Supplemental Figure 2A).

[2] = system: Neonatal Rat (P1) myofibrils; experiment: Myofibril ATPase, neonatal rat; assay type: biochemical
Experimental: (§1) Myofibrils were prepared from various animals and tissues: rabbit psoas muscle and porcine cardiac muscle were purchased from Pel-Freez Biologicals. Human bicep and soleus muscle were purchased from BioIVT, and neonatal rat muscle was obtained in house. All myofibrils were prepared using published methods ([21]).
(§2) A lactate dehydrogenase/pyruvate kinase enzyme-coupled system ([62]) was used to monitor ATP hydrolysis rates in various muscle preparations. Rabbit psoas myofibrils were used for high-throughput screening at pCa 6.25 at 0.25 mg/mL. A multidrop cassette (Thermo Fisher Scientific) dispensed 10 μL of the coupled enzyme system, calcium, and myofibrils to 10 μL ATP, NADH and PEP to initiate the reaction prior to reading on a plate reader (Envision, Perkin Elmer) for 10 minutes per plate at room temperature. Hits were reconfirmed, and secondary assays were used to evaluate selectivity, including bovine cardiac myofibrils (pCa 5.86) and enzyme coupled hits with a hexokinase screen (Sigma-Aldrich).

[3] = molecular target: T1, slow bovine masseter skeletal myofibrils (Bos taurus, UniProt Q9BE39); experiment: Myofibril ATPase, bovine masseter; assay type: biochemical; details: 100% type I, at pCa50
T1 construct: from tissue; host or cells: bovine masseter muscle

PRKCE = molecular target: T2, PRKCE (Homo sapiens, UniProt Q02156); experiment: KINOMEscan scanEDGE; assay type: binding; details: 20 uM
T2 construct: purchased Eurofins DiscoverX (KINOMEscan; SAFETYscan E/IC50 ELECT)

young mdx mice = experiment: 3-week dosing of young (weaning) mdx mice, soleus histology; assay type: in vivo, mouse; details: post-weaning mdx mice, 3 weeks
Excerpt: C57BL/6 (stock no. 000664), C57BL/10J (stock no. 000665, control for mdx experiments), C57BL/10ScSn-Dmd^mdx/J (mdx, stock no. 001801), and D2.B10 (DBA/2-congenic) Dmd^mdx (DBA/2J mdx, stock no. 013141) mice were from The Jackson Laboratory. Sprague-Dawley rats were purchased from Charles River Laboratories. For ex vivo experiments, mice were 10–16 weeks old. For in situ experiments, mice were 8–14 weeks of age. For in vivo chronic dosing studies, mdx and DBA/2J mdx were 4–5 weeks of age at study start. Dosing was via a 10 mL/kg suspension (1% methyl cellulose, 0.1% Tween 80 in water). For studies in 14-day-old preweaning mice, PO dosing was via syrup suspension (3 mg/kg/d). […]
For sterile muscle injury, mice were anesthetized with isoflurane and 50 μL cardiotoxin (12 × 10^–6 M, 217503, Millipore) injected in the TA muscle. […] 8 μm cryosections were cut and stained with H&E. For each analysis, more than 10 slides (per condition/group) containing 6 muscle sections/sample were used, and myofibers in the injured area were counted and measured with a Mirax digital scanner and HALO software ([68]). […] Image analysis was performed using ImarisX64 software (Bitplane AG), and fiber sizing was calculated using minimal Feret’s diameter ([69]). […] Fiber type, size, and central nucleation were quantified with analysis via SMASH ([70]) and ImageJ (NIH). […]

PAK4 = molecular target: T3, PAK4 (Homo sapiens, UniProt O96013); experiment: KINOMEscan scanEDGE; assay type: binding; details: 20 uM
T3 construct: purchased Eurofins DiscoverX (KINOMEscan; SAFETYscan E/IC50 ELECT)

FLT3 = molecular target: T4, FLT3 (Homo sapiens, UniProt P36888); experiment: KINOMEscan scanEDGE; assay type: binding; details: 20 uM
T4 construct: purchased Eurofins DiscoverX (KINOMEscan; SAFETYscan E/IC50 ELECT)

[4] = system: rat cardiac muscle fibers; experiment: Skinned fiber force, rat cardiac trabeculae; design: dose or concentration left out as unconfirmed; details: rat cardiac trabecular strips
Experimental: Measurement of isometric force in skinned fibers from rabbit psoas, rat soleus, and rat cardiac trabeculae were performed as described previously ([65]) with an 802D fiber system (Aurora Scientific). Muscle bundles were thawed from –80°C and placed in relaxing solution. Single fibers were transferred to the testing apparatus with steel pins connected to a force transducer and motor (model 403A and 322C, Aurora Scientific), and collodion glue was applied. Temperature was set to 15°C for skeletal fibers and 30°C for rat cardiac trabeculae. The wells of the 802D were filled with different ratios of relaxing and activating pCa solutions as detailed previously ([65]). All control solutions contained 1% final DMSO. Traces were compared between control and compound runs to evaluate isometric force and calcium sensitivity.

TIE2 = molecular target: T5, TIE2 (Homo sapiens, UniProt Q02763); experiment: KINOMEscan scanEDGE; assay type: binding; details: 20 uM
T5 construct: purchased Eurofins DiscoverX (KINOMEscan; SAFETYscan E/IC50 ELECT)

MKNK2 = molecular target: T6, MKNK2 (Homo sapiens, UniProt Q9HBH9); experiment: KINOMEscan scanEDGE; assay type: binding; details: 20 uM
T6 construct: purchased Eurofins DiscoverX (KINOMEscan; SAFETYscan E/IC50 ELECT)

AXL = molecular target: T7, AXL (Homo sapiens, UniProt P30530); experiment: KINOMEscan scanEDGE; assay type: binding; details: 20 uM
T7 construct: purchased Eurofins DiscoverX (KINOMEscan; SAFETYscan E/IC50 ELECT)

Human Bicep myofibrils = experiment: Myofibril ATPase, human bicep; assay type: biochemical
Experimental: as §1, §2

PIK3CG = molecular target: T8, PIK3CG (Homo sapiens, UniProt P48736); experiment: KINOMEscan scanEDGE; assay type: binding; details: 20 uM
T8 construct: purchased Eurofins DiscoverX (KINOMEscan; SAFETYscan E/IC50 ELECT)

T2 sequence (Q02156 whole entry): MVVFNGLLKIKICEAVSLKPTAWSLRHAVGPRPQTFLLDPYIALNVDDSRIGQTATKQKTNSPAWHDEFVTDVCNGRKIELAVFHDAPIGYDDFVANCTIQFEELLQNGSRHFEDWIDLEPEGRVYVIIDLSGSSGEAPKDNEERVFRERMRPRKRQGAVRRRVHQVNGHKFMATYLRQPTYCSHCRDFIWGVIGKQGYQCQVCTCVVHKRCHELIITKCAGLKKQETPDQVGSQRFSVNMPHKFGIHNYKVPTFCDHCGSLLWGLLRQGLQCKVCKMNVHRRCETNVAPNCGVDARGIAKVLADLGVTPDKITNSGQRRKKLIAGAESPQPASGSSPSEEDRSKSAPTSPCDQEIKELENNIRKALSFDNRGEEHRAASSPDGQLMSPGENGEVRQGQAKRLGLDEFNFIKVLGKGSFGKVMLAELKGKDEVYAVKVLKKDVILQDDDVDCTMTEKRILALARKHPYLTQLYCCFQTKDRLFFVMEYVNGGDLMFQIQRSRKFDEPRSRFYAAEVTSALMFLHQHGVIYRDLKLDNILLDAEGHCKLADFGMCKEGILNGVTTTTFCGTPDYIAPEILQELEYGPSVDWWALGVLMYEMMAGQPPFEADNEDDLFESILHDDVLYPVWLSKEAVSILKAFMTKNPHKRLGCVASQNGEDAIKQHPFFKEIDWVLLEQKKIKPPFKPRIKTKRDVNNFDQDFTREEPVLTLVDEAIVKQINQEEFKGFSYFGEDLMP
T4 sequence (P36888 27-993): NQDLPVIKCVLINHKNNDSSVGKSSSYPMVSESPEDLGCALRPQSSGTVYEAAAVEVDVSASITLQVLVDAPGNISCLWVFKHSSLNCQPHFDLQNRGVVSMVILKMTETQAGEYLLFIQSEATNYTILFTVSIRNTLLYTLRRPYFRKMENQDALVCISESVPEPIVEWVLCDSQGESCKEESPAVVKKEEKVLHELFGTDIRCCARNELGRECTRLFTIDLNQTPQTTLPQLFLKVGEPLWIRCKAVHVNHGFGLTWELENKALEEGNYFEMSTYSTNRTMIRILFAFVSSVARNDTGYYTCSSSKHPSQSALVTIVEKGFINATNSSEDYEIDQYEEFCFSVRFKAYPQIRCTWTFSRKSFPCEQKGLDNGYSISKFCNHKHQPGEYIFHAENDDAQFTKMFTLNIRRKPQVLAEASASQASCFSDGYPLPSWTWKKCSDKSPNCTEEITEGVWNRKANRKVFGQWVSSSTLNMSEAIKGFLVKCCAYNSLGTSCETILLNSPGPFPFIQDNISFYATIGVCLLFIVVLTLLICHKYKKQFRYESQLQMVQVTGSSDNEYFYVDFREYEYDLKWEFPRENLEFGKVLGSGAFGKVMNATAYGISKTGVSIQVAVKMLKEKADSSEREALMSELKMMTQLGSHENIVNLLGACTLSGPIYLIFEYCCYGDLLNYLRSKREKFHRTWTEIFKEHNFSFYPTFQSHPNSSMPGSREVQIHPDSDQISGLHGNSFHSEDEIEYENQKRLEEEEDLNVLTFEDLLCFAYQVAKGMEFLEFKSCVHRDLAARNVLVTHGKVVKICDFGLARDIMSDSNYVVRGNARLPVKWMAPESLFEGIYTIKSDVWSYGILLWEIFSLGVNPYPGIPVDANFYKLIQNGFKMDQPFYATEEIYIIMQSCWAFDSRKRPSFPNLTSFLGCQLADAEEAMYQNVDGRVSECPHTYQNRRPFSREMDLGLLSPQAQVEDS
T1 sequence (Q9BE39 whole entry): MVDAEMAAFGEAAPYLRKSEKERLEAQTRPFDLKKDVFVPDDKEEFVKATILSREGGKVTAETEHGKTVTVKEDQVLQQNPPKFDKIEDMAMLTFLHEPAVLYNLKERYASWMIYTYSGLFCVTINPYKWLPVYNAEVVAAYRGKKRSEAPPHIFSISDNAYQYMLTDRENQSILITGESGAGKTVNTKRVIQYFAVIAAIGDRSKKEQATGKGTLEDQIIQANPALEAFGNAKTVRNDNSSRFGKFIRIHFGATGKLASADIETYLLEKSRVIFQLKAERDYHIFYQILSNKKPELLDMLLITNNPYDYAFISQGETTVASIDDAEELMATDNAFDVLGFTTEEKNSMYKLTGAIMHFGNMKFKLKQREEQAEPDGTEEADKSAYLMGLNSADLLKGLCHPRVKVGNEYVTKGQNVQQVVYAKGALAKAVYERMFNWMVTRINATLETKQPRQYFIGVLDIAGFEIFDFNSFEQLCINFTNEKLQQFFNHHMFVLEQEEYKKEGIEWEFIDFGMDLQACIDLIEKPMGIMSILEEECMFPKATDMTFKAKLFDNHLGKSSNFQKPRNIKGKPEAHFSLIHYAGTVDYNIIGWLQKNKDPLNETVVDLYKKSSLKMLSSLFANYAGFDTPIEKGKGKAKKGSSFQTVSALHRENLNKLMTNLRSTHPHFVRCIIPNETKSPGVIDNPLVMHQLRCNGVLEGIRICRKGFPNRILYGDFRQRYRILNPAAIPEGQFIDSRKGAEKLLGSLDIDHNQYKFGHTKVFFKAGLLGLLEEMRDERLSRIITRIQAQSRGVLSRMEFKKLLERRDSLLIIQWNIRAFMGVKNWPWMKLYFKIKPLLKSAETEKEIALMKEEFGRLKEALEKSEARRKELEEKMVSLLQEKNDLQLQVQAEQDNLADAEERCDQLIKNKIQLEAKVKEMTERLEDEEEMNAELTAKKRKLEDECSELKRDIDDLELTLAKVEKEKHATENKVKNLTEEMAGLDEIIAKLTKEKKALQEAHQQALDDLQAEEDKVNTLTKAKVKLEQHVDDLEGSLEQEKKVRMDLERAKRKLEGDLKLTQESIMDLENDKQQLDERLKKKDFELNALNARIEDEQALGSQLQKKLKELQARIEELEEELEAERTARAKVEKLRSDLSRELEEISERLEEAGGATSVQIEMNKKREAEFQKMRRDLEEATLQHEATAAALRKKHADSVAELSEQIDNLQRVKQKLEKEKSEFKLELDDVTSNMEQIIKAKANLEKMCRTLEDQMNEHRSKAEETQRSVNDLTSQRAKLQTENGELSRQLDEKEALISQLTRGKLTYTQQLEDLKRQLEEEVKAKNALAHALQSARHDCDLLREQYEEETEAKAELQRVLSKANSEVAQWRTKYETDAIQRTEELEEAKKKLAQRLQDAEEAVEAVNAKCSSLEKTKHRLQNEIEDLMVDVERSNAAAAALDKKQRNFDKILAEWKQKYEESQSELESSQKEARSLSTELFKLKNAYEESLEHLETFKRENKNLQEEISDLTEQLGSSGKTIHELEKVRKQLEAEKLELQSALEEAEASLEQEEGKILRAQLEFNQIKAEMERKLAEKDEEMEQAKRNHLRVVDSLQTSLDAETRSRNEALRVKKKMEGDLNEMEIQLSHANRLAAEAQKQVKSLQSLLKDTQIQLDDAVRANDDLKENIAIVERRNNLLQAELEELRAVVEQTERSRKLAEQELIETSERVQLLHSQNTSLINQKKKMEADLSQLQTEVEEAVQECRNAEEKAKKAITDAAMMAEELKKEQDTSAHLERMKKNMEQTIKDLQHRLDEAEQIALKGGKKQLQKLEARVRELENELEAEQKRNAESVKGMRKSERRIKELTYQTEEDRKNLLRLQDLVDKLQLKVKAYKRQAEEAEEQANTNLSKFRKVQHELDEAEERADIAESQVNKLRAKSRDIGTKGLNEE
T1 sequence (P85100 whole entry partner): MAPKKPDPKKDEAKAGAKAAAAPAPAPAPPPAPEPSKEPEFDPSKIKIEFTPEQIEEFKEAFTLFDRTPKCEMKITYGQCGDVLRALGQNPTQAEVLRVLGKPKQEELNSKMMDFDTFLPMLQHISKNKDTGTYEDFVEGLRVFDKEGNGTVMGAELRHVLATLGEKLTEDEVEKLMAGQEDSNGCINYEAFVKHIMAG
T1 sequence (Q3SZE5 whole entry partner): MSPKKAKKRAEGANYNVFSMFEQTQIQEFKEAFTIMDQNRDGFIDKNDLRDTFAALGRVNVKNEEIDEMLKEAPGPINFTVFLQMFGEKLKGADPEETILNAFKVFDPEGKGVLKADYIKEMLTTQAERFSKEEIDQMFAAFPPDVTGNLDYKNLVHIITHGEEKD
T7 sequence (P30530 26-894): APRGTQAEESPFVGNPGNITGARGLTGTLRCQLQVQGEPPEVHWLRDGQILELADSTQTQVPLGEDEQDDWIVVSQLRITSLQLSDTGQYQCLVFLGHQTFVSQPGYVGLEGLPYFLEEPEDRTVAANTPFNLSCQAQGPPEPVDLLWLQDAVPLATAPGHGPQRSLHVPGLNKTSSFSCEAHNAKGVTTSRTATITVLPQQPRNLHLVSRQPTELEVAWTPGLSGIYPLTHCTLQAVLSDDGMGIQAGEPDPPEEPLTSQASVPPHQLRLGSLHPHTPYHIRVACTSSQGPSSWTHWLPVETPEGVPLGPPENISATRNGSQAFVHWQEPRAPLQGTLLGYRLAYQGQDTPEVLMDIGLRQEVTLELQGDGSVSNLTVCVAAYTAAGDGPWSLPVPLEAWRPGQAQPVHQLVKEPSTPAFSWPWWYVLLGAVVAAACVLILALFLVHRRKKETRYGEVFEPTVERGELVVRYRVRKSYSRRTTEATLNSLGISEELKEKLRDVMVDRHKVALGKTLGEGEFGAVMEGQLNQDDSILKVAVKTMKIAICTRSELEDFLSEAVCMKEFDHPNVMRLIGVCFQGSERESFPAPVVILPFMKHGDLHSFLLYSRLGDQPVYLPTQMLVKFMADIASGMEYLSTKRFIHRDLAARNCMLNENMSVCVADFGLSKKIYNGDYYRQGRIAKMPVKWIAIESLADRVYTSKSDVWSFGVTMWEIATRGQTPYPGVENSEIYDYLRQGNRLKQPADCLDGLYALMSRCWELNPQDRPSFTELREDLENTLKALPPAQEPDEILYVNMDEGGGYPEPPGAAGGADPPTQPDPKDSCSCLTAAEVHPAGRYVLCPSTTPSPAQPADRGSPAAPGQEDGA

O=c1ccc(-c2cnc(OCC(F)(F)F)nc2)nn1Cc1cncc(F)c1 [EDG-5506]
ex vivo force inhibition [1]: completely inhibiting force
Maximum Inhibition (%) ([2]; neonatal rat (P1) myofibrils): 96%
IC50 ([2]; neonatal rat (P1), 100% neonatal/embryonic MHC): 200 nM
IC50 [3]: > 100000 nM
binding, % of control (PRKCE): 81 % of control
central nucleation in soleus (young mdx mice): decreased central nucleation
binding, % of control (PAK4): 99 % of control
binding, % of control (FLT3): 89 % of control
effect on force, cardiac muscle fibers [4]: no effect
binding, % of control (TIE2): 95 % of control
binding, % of control (MKNK2): 92 % of control
binding, % of control (AXL): 92 % of control
Maximum Inhibition (%) (Human Bicep myofibrils; human bicep myofibrils): 89%
IC50 (Human Bicep myofibrils; human bicep, 50% Type I, 50% IIa, IIx): 1200 nM
binding, % of control (PIK3CG): 100 % of control
